Data set [1] is described as follows: Solubility at different pH conditions (equilibrium, 24 h, HPLC). The class given is physicochemical. The method, then: Protocol for Solubility Studies of the Compounds of Instant Disclosure The solubility of the compounds of the present invention have been evaluated at various pH levels. The solubility was tested using the procedure described below. Excess amount of powder compound was equilibrated with 1 mL of buffer in a 2 mL glass vial and the dispersion of the compound in buffer ensured by vortexing, followed by sonication. The vials were shaken at 300 rpm at room temperature for 24 h. After 24 h incubation, the slurry was filtered and the filtrate analyzed by HPLC for the quantification of the solubilized fraction of compound using a four point calibration curve. Note: The incubation time was decided based on the aqueous stability data. If the compound was stable in the buffer up to 24 hrs, then the solubility was measured after 24 hrs, otherwise kinetic solubility data is reported. The solubility data at different pH conditions at 24 h (mg/mL) is provided in below Table 1.

The target in data set [2] is Kv1.5 channel of voltage-gated K+ channels (Homo sapiens, UniProt P22460). The data set can be described thus: Kv1.5 channel inhibition. Format: cell-based. An excerpt:
Assays to determine the degree of activity of a compound as an IKur inhibitor are well known in the art and are described in references such as J. Gen. Physiol., 101(4):513-543 (April 1993), and Br. J. Pharmacol., 115(2):267-274 (May 1995).
By displaying activity as inhibitors of the Kv1.5 channel of voltage-gated K+ channels, compounds of the present disclosure are expected to be useful in the treatment of human diseases associated with the Kv1.5 channel.

Where [3] appears, read: buffer, pH 1, aqueous buffer, thermodynamic from solid, pH 1, room temperature, read-out: Solubility at 24 h.
[4] abbreviates: buffer, pH 2, aqueous buffer, thermodynamic from solid, pH 2, room temperature, read-out: Solubility at 24 h.
Setting [5] is: buffer, pH 3, aqueous buffer, thermodynamic from solid, pH 3, room temperature, read-out: Solubility at 24 h.
Setting [6] is: buffer, pH 5, aqueous buffer, thermodynamic from solid, pH 5, room temperature, read-out: Solubility at 24 h.
[7] abbreviates: buffer, pH 6.5, aqueous buffer, thermodynamic from solid, pH 6.5, room temperature, read-out: Solubility at 24 h.
Setting [8] is: buffer, pH 7.4, aqueous buffer, thermodynamic from solid, pH 7.4, room temperature, read-out: Solubility at 24 h.

The structures appear in SMILES notation. Values after ≈ are worked out from the molar mass of the structure shown. Where two headings read alike, the source gives them in different places.

Sequence of Kv1.5 channel of voltage-gated K+ channels (P22460 whole entry): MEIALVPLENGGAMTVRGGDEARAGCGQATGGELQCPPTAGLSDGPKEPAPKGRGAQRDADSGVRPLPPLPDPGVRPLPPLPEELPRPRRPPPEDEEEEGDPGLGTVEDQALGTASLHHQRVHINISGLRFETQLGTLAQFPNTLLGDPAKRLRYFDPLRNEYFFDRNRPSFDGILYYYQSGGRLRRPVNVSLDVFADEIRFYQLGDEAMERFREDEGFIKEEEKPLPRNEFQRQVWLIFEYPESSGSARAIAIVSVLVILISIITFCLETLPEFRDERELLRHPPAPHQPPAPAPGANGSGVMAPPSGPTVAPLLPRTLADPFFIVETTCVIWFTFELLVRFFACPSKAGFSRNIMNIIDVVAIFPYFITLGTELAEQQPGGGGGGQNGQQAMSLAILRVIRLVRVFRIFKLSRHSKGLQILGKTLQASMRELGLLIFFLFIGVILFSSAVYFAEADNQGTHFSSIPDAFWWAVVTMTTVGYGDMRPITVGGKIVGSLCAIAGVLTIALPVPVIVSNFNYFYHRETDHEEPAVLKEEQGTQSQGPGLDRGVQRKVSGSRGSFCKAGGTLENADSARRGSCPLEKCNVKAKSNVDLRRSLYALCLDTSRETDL

For `O=P(O)(O)NS(=O)(=O)c1cncc(-c2nc(NCc3ccccn3)c3c(-c4ccccc4)cccc3n2)c1` [Compound 7, Calcium (5-(5-phenyl-4-((pyridin-2-ylmethyl)amino)quinazolin-2-yl)pyridin-3-yl)sulfonylphosphoramidate], the Solubility – broadly, how much of the substance goes into solution per volume – at 24 h in data set [1] (pH 1, room temperature) was 990 µg/mL; in data set [1] (pH 2, room temperature), 120 µg/mL; in data set [1] (pH 3, room temperature) it was 20 µg/mL; in data set [1] (pH 5, room temperature), 70 µg/mL; in data set [1] (pH 6.5, room temperature), 1150 µg/mL; in data set [1] (pH 7.4, room temperature) it was 2410 µg/mL.

In the case of `O=P(O)(O)NS(=O)(=O)c1cncc(-c2nc(NCc3ccccn3)c3c(-c4ccccc4)cccc3n2)c1` [Compound 6, Tripotassium (5-(5-phenyl-4-((pyridin-2-ylmethyl)amino)quinazolin-2-yl)pyridin-3-yl)sulfonylphosphoramidate], the “Solubility at 24 h” value is 290 µg/mL in data set [1] (pH 1, room temperature); 90 µg/mL in data set [1] (pH 2, room temperature); 70 µg/mL in data set [1] (pH 3, room temperature); 250 µg/mL in data set [1] (pH 5, room temperature); 300 µg/mL in data set [1] (pH 6.5, room temperature); greater than 1070 µg/mL in data set [1] (pH 7.4, room temperature).

Regarding `O=P(O)(O)NS(=O)(=O)c1cncc(-c2nc(NCc3ccccn3)c3c(-c4ccccc4)cccc3n2)c1` [Compound 5, Tris-(5-(5-phenyl-4-((pyridin-2-ylmethyl)amino)quinazolin-2-yl)pyridin-3-yl)sulfonylphosphoramidate], the “Solubility at 24 h” value was 1620 µg/mL (≈ 2950 µM) in data set [1] (pH 1, room temperature); 80 µg/mL (≈ 146 µM) in data set [1] (pH 2, room temperature); 30 µg/mL (≈ 54.7 µM) in data set [1] (pH 3, room temperature); 22 µg/mL (≈ 40.1 µM) in data set [1] (pH 5, room temperature); 2023 µg/mL (≈ 3690 µM) in data set [1] (pH 6.5, room temperature); 2514 µg/mL (≈ 4580 µM) in data set [1] (pH 7.4, room temperature).

For `O=P(O)(O)NS(=O)(=O)c1cncc(-c2nc(NCc3ccccn3)c3c(-c4ccccc4)cccc3n2)c1` [Compound 8, Magnesium (5-(5-phenyl-4-((pyridin-2-ylmethyl)amino)quinazolin-2-yl)pyridin-3-yl)sulfonylphosphoramidate], the “Solubility at 24 h” value in data set [1] (pH 1, room temperature) came to 600 µg/mL (≈ 1090 µM); in data set [1] (pH 2, room temperature), 20 µg/mL (≈ 36.5 µM); in data set [1] (pH 3, room temperature) it was 20 µg/mL (≈ 36.5 µM); in data set [1] (pH 5, room temperature), 30 µg/mL (≈ 54.7 µM); in data set [1] (pH 6.5, room temperature), 160 µg/mL (≈ 292 µM); in data set [1] (pH 7.4, room temperature), 190 µg/mL (≈ 346 µM).

Consider `O=P(O)(O)NS(=O)(=O)c1cncc(-c2nc(NCc3ccccn3)c3c(-c4ccccc4)cccc3n2)c1` [Compound 2, 5-(5-Phenyl-4-(pyridin-2-ylmethylamino)quinazolin-2-yl)pyridin-3-ylsulfonylphosphoramidic acid], for which the “Solubility at 24 h” value came out at 250 µg/mL (≈ 456 µM) in data set [1] (pH 1, room temperature); 30 µg/mL (≈ 54.7 µM) in data set [1] (pH 2, room temperature); 10 µg/mL (≈ 18.2 µM) in data set [1] (pH 3, room temperature); 2 µg/mL (≈ 3.65 µM) in data set [1] (pH 5, room temperature); 110 µg/mL (≈ 201 µM) in data set [1] (pH 6.5, room temperature); 560 µg/mL (≈ 1020 µM) in data set [1] (pH 7.4, room temperature).

Turning to `O=P(O)(O)NS(=O)(=O)c1cncc(-c2nc(NCc3ccccn3)c3c(-c4ccccc4)cccc3n2)c1` [Compound 3, Trisodium (5-(5-phenyl-4-((pyridin-2-ylmethyl)amino)quinazolin-2-yl)pyridin-3-yl)sulfonylphosphoramidate], the “Solubility at 24 h” value in data set [1] (pH 1, room temperature) stood at 750 µg/mL; in data set [1] (pH 2, room temperature) it was 110 µg/mL; in data set [1] (pH 3, room temperature), 20 µg/mL; in data set [1] (pH 5, room temperature), 150 µg/mL; in data set [1] (pH 6.5, room temperature) it was 4620 µg/mL; in data set [1] (pH 7.4, room temperature), 7300 µg/mL.

Regarding `O=P(O)(O)N(P(=O)(O)O)S(=O)(=O)c1cncc(-c2nc(NCc3ccccn3)c3c(-c4ccccc4)cccc3n2)c1` [Compound 10], the Solubility at 24 h in data set [1] (setting [3]) is greater than 1740 µg/mL; in data set [1] (setting [4]), greater than 4050 µg/mL; in data set [1] (setting [5]) it was greater than 2110 µg/mL; in data set [1] (setting [6]) it was greater than 5120 µg/mL; in data set [1] (setting [7]), greater than 4580 µg/mL; in data set [1] (setting [8]) it was greater than 1990 µg/mL.

Turning to `NS(=O)(=O)c1cncc(-c2nc(NCc3ccccn3)c3c(-c4ccccc4)cccc3n2)c1` [Compound 1, 5-(5-phenyl-4-((pyridin-2-ylmethyl)amino)quinazolin-2-yl)pyridine-3-sulfonamide, reference compound], the IC50 (usually the midpoint of a concentration-inhibition curve) in data set [2] is 46 nM. In addition, the Solubility at 24 h in data set [1] (setting [3]) was 6400 µg/mL (≈ 13700 µM); in data set [1] (setting [4]), 410 µg/mL (≈ 875 µM); in data set [1] (setting [5]), less than 1 µg/mL; in data set [1] (setting [6]), less than 1 µg/mL; in data set [1] (setting [7]), less than 1 µg/mL; in data set [1] (setting [8]) it was less than 1 µg/mL.

The values above are taken from patent US9238666B2, “Phosphoramidic acid prodrugs of 5-[5-phenyl-4-(pyridin-2-ylmethylamino)quinazolin-2-yl] pyridine-3-sulfonamide” (BRISTOL-MYERS SQUIBB COMPANY, priority 2012, dated 2016).
